From patent publication US10155754B2, “Substituted 2-imino-1,3-thiazolidin-4-ones as N-arachidonoylethanolamine cellular uptake inhibitors” (UNIVERSITAT BERN, priority 2014, dated 2018)

system: AEA cellular uptake (U937 cells); assay: [3H]-AEA cellular uptake inhibition in U937 cells; type: cell-based; settings: Homo sapiens, U-937, U937 cells, final 100 nM AEA with 0.5 nM [3H]-AEA, 15 min at 37° C.; read-out: AEA uptake IC50
Procedure: [^3H]-AEA Cellular Uptake
Screening for AEA cellular uptake inhibition was performed in a semi-automated procedure: Pipetting and washing steps were performed by a Biomek3000 laboratory workstation. First, required amounts of U937 cells were centrifuged at 100×g for 5 min and resuspended in RPMI (37° C.) to a final concentration of 2×10^6 cells/mL. Then, 250 μL of cell suspension (0.5×10^6 cells per sample) were transferred into AquaSil™ silanized glass vials (Chromacol 1.1-MTV) in 96-well format. After addition of 5 μL vehicle (DMSO) or compounds the cells were incubated at 37° C. for 15 min. As positive controls OMDM-2 and UCM707 were used at 10 μM in each run. The ETI-T compounds were measured at up to 7 concentrations in triplicates from 100 pM-100 μM. After pre-incubation, a mixture of 0.5 nM [ethanolamine-1-^3H]-AEA, (60 Ci/mmol) and 99.5 nM of cold AEA (final 100 nM) was added and samples were incubated at 37° C. for another 15 min. The reaction was stopped by rapid filtration over UniFilter-96 GF/C filters (PerkinElmer) pre-soaked with PBS 0.25% BSA. Cells were washed three times with 100 μL ice-cold PBS buffer containing 1% fatty acid free BSA. After drying, 45 μL MicroScint 20 scintillation cocktail (PerkinElmer, Waltham, Mass., US) was added to the wells and the plate was sealed. Radioactivity was measured by liquid scintillation counting on a PerkinElmer Wallac Trilux MicroBeta 1450 during 2 min. Non-specific binding of [^3H]AEA (100 nM) to the glass vials was never higher than 10%. IC50 values were calculated by GraphPad® by non-linear regression using the built-in log(inhibitor) vs. response-variable slope (four parameters) function.

Row | IC50 [nM] | Compound
1 | 1020 | O=C1/C(=C/c2ccc3[nH]cnc3c2)S/C(=N\Cc2ccc(F)cc2)N1c1ccccc1 [04_P_N, (2Z,5Z)-5-((1H-benzo[d]imidazol-5-yl)methylene)-2-(4-fluorobenzylimino)-3-phenylthiazolidin-4-one]
2 | > 10000 | C/N=C1\S/C(=C\c2ccc(CO)cc2)C(=O)N1c1ccccc1 [22_E_N, (2Z,5Z)-5-(4-(hydroxymethyl)benzylidene)-2-(methylimino)-3-phenylthiazolidin-4-one]
3 | 419 | O=C1/C(=C/c2ccc3c(c2)OCCO3)S/C(=N\c2ccc(F)cc2)N1c1ccccc1 [24_B_N, (2Z,5Z)-2-(4-fluorophenylimino)-5-((2,3-dihydrobenzo[b][1,4]dioxin-6-yl)methylene)-3-phenylthiazolidin-4-one]
4 | 713 | COc1ccc(C/N=C2\S/C(=C\c3ccc(CO)cc3)C(=O)N2c2ccccc2)cc1 [22_Q_N, (2Z,5Z)-5-(4-(hydroxymethyl)benzylidene)-2-(4-methoxybenzylimino)-3-phenylthiazolidin-4-one]
5 | 760 | Cc1ccc(N2C(=O)/C(=C/c3ccc4[nH]ccc4c3)S/C2=N\c2ccc(F)cc2)cc1 [03_B_A, (2Z,5Z)-5-((1H-indol-5-yl)methylene)-2-(4-fluorophenylimino)-3-p-tolylthiazolidin-4-one]
6 | 610 | O=C1/C(=C/c2ccc3[nH]cnc3c2)S/C(=N\c2ccccc2)N1Cc1ccccc1 [03_N_C, (2Z,5Z)-5-((1H-benzo[d]imidazol-5-yl)methylene)-3-benzyl-2-(phenylimino)thiazolidin-4-one]
7 | 12500 | CCCCCCCCCCCCN1C(=O)/C(=C/c2ccc(CO)cc2)S/C1=N\c1ccc(F)cc1 [22_B_V, (2Z,5Z)-5-(4-(hydroxymethyl)benzylidene)-2-(4-fluorophenylimino)-3-dodecylthiazolidin-4-one]
8 | > 10000 | CCCCCCCCCCCCN1C(=O)/C(=C/c2ccc(CO)cc2)S/C1=N\c1ccc(C)cc1 [04_A_V, (2Z,5Z)-5-(4-(hydroxymethyl)benzylidene)-2-(p-tolylimino)-3-dodecylthiazolidin-4-one]
9 | 1130 | CC(C)CN1C(=O)/C(=C/c2ccccc2)S/C1=N\c1ccc(F)cc1 [23_B_X, (2Z,5Z)-2-(4-fluorophenylimino)-5-benzylidene-3-isobutylthiazolidin-4-one]
10 | 616 | Cc1ccc(/N=C2\S/C(=C\c3ccc4c(c3)OCCO4)C(=O)N2c2ccc(Cl)cc2)cc1 [24_A_L, (2Z,5Z)-2-(p-tolylimino)-3-(4-chlorophenyl)-5-((2,3-dihydrobenzo[b][1,4]dioxin-6-yl)methylene)thiazolidin-4-one]
11 | 1510 | Cc1ccc(/N=C2\S/C(=C\c3ccc4c(c3)OCCO4)C(=O)N2c2ccccc2)cc1 [24_A_N, (2Z,5Z)-2-(p-tolylimino)-5-((2,3-dihydrobenzo[b][1,4]dioxin-6-yl)methylene)-3-phenylthiazolidin-4-one]
12 | 1280 | CCCCN1C(=O)/C(=C/c2ccc(CO)cc2)S/C1=N\Cc1ccccc1 [22_C_G, (2Z,5Z)-5-(4-(hydroxymethyl)benzylidene)-2-(benzylimino)-3-butylthiazolidin-4-one]
13 | 1310 | O=C1/C(=C/c2ccc(CO)cc2)S/C(=N\c2ccccc2)N1Cc1ccco1 [22_N_M, (2Z,5Z)-5-(4-(hydroxymethyl)benzylidene)-3-((furan-2-yl)methyl)-2-(phenylimino)thiazolidin-4-one]
14 | > 10000 | COCc1ccc(/C=C2\S/C(=N\c3ccccc3)N(c3ccccc3)C2=O)cc1 [compound 34, (2Z,5Z)-5-(4-(methoxymethyl)benzylidene)-3-phenyl-2-(phenylimino)thiazolidin-4-one]
15 | 1400 | O=C1/C(=C/c2ccc3[nH]cnc3c2)S/C(=N\CCc2ccccc2)N1c1ccccc1 [04_U_N, (2Z,5Z)-5-((1H-benzo[d]imidazol-5-yl)methylene)-2-(phenethylimino)-3-phenylthiazolidin-4-one]
16 | 1070 | COc1ccc(/N=C2\S/C(=C\c3ccc4[nH]ccc4c3)C(=O)N2c2ccccc2)cc1 [03_F_N, (2Z,5Z)-5-((1H-indol-5-yl)methylene)-2-(4-methoxyphenylimino)-3-phenylthiazolidin-4-one]
17 | 879 | O=C1/C(=C/c2ccc3[nH]ccc3c2)S/C(=N\c2ccccc2)N1Cc1ccco1 [03_N_M, (2Z,5Z)-5-((1H-indol-5-yl)methylene)-3-((furan-2-yl)methyl)-2-(phenylimino)thiazolidin-4-one]
18 | 557 | CCCCN1C(=O)/C(=C/c2ccc3[nH]cnc3c2)S/C1=N\c1ccccc1 [04_N_G, (2Z,5Z)-5-((1H-benzo[d]imidazol-5-yl)methylene)-3-butyl-2-(phenylimino)thiazolidin-4-one]
19 | 5180 | CC(C)(C)c1ccc(C/N=C2\S/C(=C\c3ccc(CO)cc3)C(=O)N2c2ccccc2)cc1 [22_R_N, (2Z,5Z)-5-(4-(hydroxymethyl)benzylidene)-2-(4-tert-butylbenzylimino)-3-phenylthiazolidin-4-one]
20 | 2170 | O=C1/C(=C/c2ccc(CO)cc2)S/C(=N\Cc2ccccc2)N1c1ccc(F)cc1 [22_C_B, (2Z,5Z)-5-(4-(hydroxymethyl)benzylidene)-2-(benzylimino)-3-(4-fluorophenyl)thiazolidin-4-one]

same assay, conditions: Homo sapiens, U-937, U937 cells, final 100 nM AEA with 0.5 nM [3H]-AEA, 15 min at 37° C.; read-out: AEA uptake inhibition IC50

Row | IC50 [nM] | Compound
21 | 257 | O=C1/C(=C/c2ccc(CO)cc2)S/C(=N\Cc2ccccc2)N1c1ccccc1 [drawing 142]
22 | 731 | O=C1/C(=C/c2ccc3[nH]ccc3c2)S/C(=N\c2ccccc2)N1c1ccccc1 [drawing 108]
23 | 515 | Cn1ncc2cc(/C=C3\S/C(=N\c4ccccc4)N(c4ccccc4)C3=O)ccc21 [drawing 126]
24 | 5500 | COc1cc(/C=C2\S/C(=N\c3ccccc3)N(c3ccccc3)C2=O)ccn1
25 | 291 | O=C1/C(=C/c2ccc3ncsc3c2)S/C(=N\c2ccccc2)N1c1ccccc1 [drawing 129]
26 | 1090 | CCCCN1C(=O)/C(=C/c2ccc(CO)cc2)S/C1=N\c1ccccc1 [drawing 158]
27 | 879 | O=C1/C(=C/c2ccc3[nH]ccc3c2)S/C(=N\c2ccccc2)N1Cc1ccco1 [drawing 153]
28 | 7100 | O=C1/C(=C/c2ccc3nccnc3c2)S/C(=N\c2ccccc2)N1c1ccccc1
29 | 1000 | COCc1cccc(/C=C2\S/C(=N\c3ccccc3)N(c3ccccc3)C2=O)c1 [drawing 117]
30 | 1600 | COc1ccnc(/C=C2\S/C(=N\c3ccccc3)N(c3ccccc3)C2=O)c1
31 | 2290 | COc1ccc(/C=C2\S/C(=N\c3ccccc3)N(Cc3ccccc3)C2=O)cc1
32 | 817 | O=C1/C(=C/c2ccc3c(c2)OCCO3)S/C(=N\c2ccccc2)N1c1ccccc1 [drawing 119]
33 | 5560 | O=C1/C(=C/c2ccc3[nH]c(=O)oc3c2)S/C(=N\c2ccccc2)N1c1ccccc1
34 | 3360 | O=C1/C(=C/c2ccc3c(c2)OCO3)S/C(=N\c2ccccc2)N1c1ccccc1
35 | 3240 | Cc1ccc(/N=C2\S/C(=C\c3ccccc3)C(=O)N2c2ccccc2)cc1
36 | 2780 | O=C1/C(=C/c2ccccc2)S/C(=N\c2ccccc2)N1c1ccccc1
37 | 657 | O=C1/C(=C/c2ccc(CO)cc2)S/C(=N\c2ccccc2)N1Cc1ccccc1 [drawing 156]
38 | 164 | COc1ccc(/N=C2\S/C(=C\c3ccc4[nH]cnc4c3)C(=O)N2c2ccccc2)cc1 [drawing 147]
39 | 557 | CCCCN1C(=O)/C(=C/c2ccc3[nH]cnc3c2)S/C1=N\c1ccccc1 [drawing 154]
40 | 1690 | COCc1cccc(/C=C2\S/C(=N\Cc3ccccc3)N(c3ccccc3)C2=O)c1 [drawing 139]
41 | 610 | O=C1/C(=C/c2ccc3[nH]ccc3c2)S/C(=N\c2ccccc2)N1Cc1ccccc1

same assay, conditions: U937 cells, final 100 nM AEA with 0.5 nM [3H]-AEA, 15 min at 37° C.; read-out: AEA uptake IC50

Row | IC50 [nM] | Compound
42 | 1690 | COCc1cccc(/C=C2\S/C(=N\Cc3ccccc3)N(c3ccccc3)C2=O)c1 [15_C_N, (2Z,5Z)-5-(3-(methoxymethyl)benzylidene)-2-(benzylimino)-3-phenylthiazolidin-4-]
43 | 1200 | O=C1/C(=C/c2ccc(CO)cc2)S/C(=N\Cc2ccccc2)N1CCc1ccccc1 [22_C_O, (2Z,5Z)-5-(4-(hydroxymethyl)benzylidene)-2-(benzylimino)-3-phenethylthiazolidin-4-]
44 | 861 | O=C1/C(=C/c2ccc(CO)cc2)S/C(=N\c2ccccc2)N1CCCc1ccccc1 [22_N_K, (2Z,5Z)-5-(4-(hydroxymethyl)benzylidene)-2-(phenylimino)-3-(3-phenylpropyl)thiazolidin-4-]
45 | 527 | Cc1ccc(N2C(=O)/C(=C/c3ccc4[nH]cnc4c3)S/C2=N\c2ccc(F)cc2)cc1 [04_B_A, (2Z,5Z)-5-((1H-benzo[d]imidazol-5-yl)methylene)-2-(4-fluorophenylimino)-3-p-tolylthiazolidin-4-one]
46 | 677 | (2Z,5Z)-5-((1H-benzo[d]imidazol-5-yl)methylene)-3-butyl-2-(phenylimino)thiazolidin-4- [03_N_G]
